Data published in patent publication EP4810492A1, “NMT INHIBITOR, PREPARATION METHOD THEREFOR, AND USE THEREOF” (Nanjing Synnocare Pharmaceutical Technology Co., Ltd., priority 2023, dated 2025).
Where two headings read alike, the source gives them in different places.

Legend:
[1] = system: MV-4-11 cells; experiment: Anti-proliferative activity against MV-4-11 cells (cell viability chemiluminescence); format: cell-based; conditions: MV-4-11 human monocytic leukemia cells, three days of exposure
Experimental: This study utilized a cell proliferation assay to analyze the cytotoxicity of MV-4-11 human monocytic leukemia cells after three days of exposure to NMT1 inhibitors. The MV-4-11 cell line was purchased from Nanjing Cobuilder Biotechnology Co., Ltd., and cultured in IMDM medium (Viva cell) in an incubator (Thermo) at 37 °C with 5% CO2. In this experiment, NMT1 inhibitors were dissolved in DMSO to obtain 600 µM stock solutions. Dose-response solutions were prepared with a top endpoint compound concentration of 3 µM, followed by three-fold serial dilutions in DMSO, totaling eight data points. The final concentration of DMSO was 0.5%.
MV-4-11 cells were seeded into a white 96-well plate, 80 µL of cell suspension per well, containing 6000 MV-4-11 cells. The cell plate was placed in the CO2 incubator for overnight culture. Then, 20 µL of NMT1 inhibitor solutions at different concentrations were added to the wells. The 96-well plate was placed back into the incubator for three days. Another cell plate was prepared, and the signal was read on the day of drug addition to serve as the maximum value (Max value in the equation below) for data analysis. To this cell plate, 25 µL of cell viability chemiluminescence detection reagent was added per well, followed by incubation at room temperature for 10 minutes to stabilize the luminescence signal. A multi-label analyzer was used for reading.
The raw data were converted into inhibition rates using the equation (Sample - Min) / (Max - Min) * 100%. The IC50 values were then determined by fitting a four-parameter curve (using the "log(inhibitor) vs. response - Variable slope" model in GraphPad Prism). Min: wells treated with 0.5% DMSO; Max: Day 0 wells. Table 1 provides the inhibitory activity of the compounds of the invention on MV-4-11 cell proliferation. Table 1: Compound Inhibitory Activity against NMT1 Enzyme (IC50) and Anti-proliferative Activity against MV-4-11 Cell line (IC50)

[2] = target: T1, NMT1 enzyme (Homo sapiens, UniProt P30419); experiment: Inhibitory activity on NMT1 enzyme catalysis (fluorescence intensity assay); format: biochemical
T1 sequence (P30419 1-496): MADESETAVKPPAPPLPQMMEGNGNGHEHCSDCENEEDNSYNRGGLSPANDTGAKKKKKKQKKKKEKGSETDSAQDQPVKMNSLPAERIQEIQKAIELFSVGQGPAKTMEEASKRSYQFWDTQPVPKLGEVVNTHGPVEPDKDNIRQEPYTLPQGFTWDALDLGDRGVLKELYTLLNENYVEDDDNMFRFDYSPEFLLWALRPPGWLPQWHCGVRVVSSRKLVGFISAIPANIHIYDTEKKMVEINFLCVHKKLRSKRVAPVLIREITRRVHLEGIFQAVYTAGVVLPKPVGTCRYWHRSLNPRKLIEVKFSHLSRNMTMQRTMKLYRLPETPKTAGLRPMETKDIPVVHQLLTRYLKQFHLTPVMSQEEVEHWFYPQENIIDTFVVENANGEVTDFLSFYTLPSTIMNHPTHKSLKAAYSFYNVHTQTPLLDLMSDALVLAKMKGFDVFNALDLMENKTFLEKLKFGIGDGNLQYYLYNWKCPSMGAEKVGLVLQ
Experimental: This study evaluated the ability of the compounds of the invention to inhibit NMT1 catalytic activity in vitro. […] The final concentration of the NMT1 enzyme was 6 nM, the final concentration of CPM (Reactive thiol fluorescence probe, Invitrogen, D346) was 1 µM, the final concentration of HSPP60 SRC was 20 µM, and the final concentration of DMSO was 0.5%.
Compounds were dissolved in DMSO to obtain 10 mM stock solutions. Dose-response solutions were prepared with a top endpoint compound concentration of 3 mM, followed by three-fold serial dilutions in DMSO, totaling ten data points. […] Then, 2.5 µL of the NMT1 enzyme working solution was added to the 384-well assay plate, followed by incubation at 25 °C for 10 minutes. Subsequently, 5 µL of the CPM and myristoyl-CoA working solution was added, the plate was centrifuged at 1000 rpm for 1 minute, and then 2.5 µL of the HSPP60 SRC working solution was added to initiate the reaction. The reaction was incubated at 25 °C for 45 minutes.
The IC50 curve of the compounds was fitted using the software XLfit 5.5.0 according to the nonlinear regression equation.

[3] = 6 nM NMT1 enzyme, 1.25 µM myristoyl-CoA, 20 µM HSPP60 SRC peptide, 45 minutes at 25 °C, read-out: NMT1 (IC50)

Row | SMILES | IC50 ([1]; MV4-11, 72 h) [nM] | IC50 [2, 3] [nM] | other results
1 | Cc1c(NS(=O)(=O)c2c(Cl)cc(-c3ccc4sc5c(c4c3)CNCC5)cc2Cl)c(C2CC2)nn1C [Compound 4] | 25.8 | 3.64 | –
2 | Cc1c(NS(=O)(=O)c2c(Cl)cc(-c3ccc4sc5c(c4c3)CNCC5)cc2Cl)c(CO)nn1C [Compound 14] | 145 | 7.89 | –
3 | COCc1nn(C)c(C)c1NS(=O)(=O)c1c(Cl)cc(-c2ccc3sc4c(c3c2)CNCC4)cc1Cl [Compound 15] | – | – | IC50 ([1]; Homo sapiens, MV4-11, 72 h): 78.6 nM; IC50 [2]: 4.73 nM
4 | Cc1c(NS(=O)(=O)c2c(Cl)cc(-c3ccc4sc5c(c4c3)CNCC5)cc2Cl)c(CF)nn1C [Compound 16] | 58.5 | 4.67 | –
5 | CCc1nn(C)c(C)c1NS(=O)(=O)c1c(Cl)cc(-c2ccc3oc4c(c3c2)CNCC4)cc1Cl [Compound 46] | 18.8 | 3.96 | –
6 | Cc1nn(C)c(C)c1NS(=O)(=O)c1c(Cl)cc(-c2ccc3oc4c(c3c2)CNCC4)cc1Cl [Compound 47] | 23.1 | 4.17 | –
7 | Cc1c(NS(=O)(=O)c2c(Cl)cc(-c3ccn4nc5c(c4c3)CNCC5)cc2Cl)c(CC(C)C)nn1C [Compound 48] | 36.7 | 4.2 | –
8 | CCc1nn(C)c(C)c1NS(=O)(=O)c1c(Cl)cc(-c2ccn3nc4c(c3c2)CNCC4)cc1Cl [Compound 49] | 16.8 | 3.64 | –
9 | Cc1nn(C)c(C)c1NS(=O)(=O)c1c(Cl)cc(-c2ccn3nc4c(c3c2)CNCC4)cc1Cl [Compound 50] | 21.9 | 3.79 | –
10 | CCc1nn(C)c(C)c1NS(=O)(=O)c1c(Cl)cc(-c2ccc3sc4c(c3c2)CCNC4)cc1Cl [Compound 55] | 26.2 | 3.97 | –
11 | Cc1nn(C)c(C)c1NS(=O)(=O)c1c(Cl)cc(-c2ccc3sc4c(c3c2)CCNC4)cc1Cl [Compound 56] | 29.7 | 4.21 | –
12 | Cc1c(NS(=O)(=O)c2c(Cl)cc(-c3ccc4c(c3)N3CCNC[C@H]3CO4)cc2Cl)c(CC(C)C)nn1C [Compound 57] | – | – | IC50 ([1]; Homo sapiens, MV4-11, 72 h): 144 nM; IC50 [2]: 8.76 nM
13 | Cc1c(NS(=O)(=O)c2c(Cl)cc(-c3ccc4c(c3)N3CCNC[C@@H]3CO4)cc2Cl)c(CC(C)C)nn1C [Compound 60] | – | – | IC50 ([1]; Homo sapiens, MV4-11, 72 h): 152 nM; IC50 [2]: 7.95 nM
14 | Cc1c(NS(=O)(=O)c2c(Cl)cc(N3CCc4sc5c(c4C3)CNCC5)cc2Cl)c(CC(C)C)nn1C [Compound 63, 2,6-dichloro-4-(3,4,6,7,8,9-hexahydrothieno[3,2-c:4,5-c']dipyridine-2(1H)-yl)-N-(3-isobutyl-1,5-dimethyl-1H-pyrazol-4-yl)benzenesulfonamide] | 16.7 | 3.35 | –
15 | CCc1nn(C)c(C)c1NS(=O)(=O)c1c(Cl)cc(N2CCc3sc4c(c3C2)CNCC4)cc1Cl [Compound 64] | 7.36 | 2.97 | –
16 | Cc1nn(C)c(C)c1NS(=O)(=O)c1c(Cl)cc(N2CCc3sc4c(c3C2)CNCC4)cc1Cl [Compound 65] | 21.1 | 3.51 | –
17 | Cc1c(NS(=O)(=O)c2c(Cl)cc(N3CCn4nc5c(c4C3)CNCC5)cc2Cl)c(CC(C)C)nn1C [Compound 69] | 21.9 | 3.75 | –
18 | CCc1nn(C)c(C)c1NS(=O)(=O)c1c(Cl)cc(N2CCn3nc4c(c3C2)CNCC4)cc1Cl [Compound 70] | 15.2 | 3.46 | –
19 | Cc1nn(C)c(C)c1NS(=O)(=O)c1c(Cl)cc(N2CCn3nc4c(c3C2)CNCC4)cc1Cl [Compound 71] | 25.9 | 3.79 | –
20 | Cc1nn(C)c(C)c1NS(=O)(=O)c1ccc(-c2ccc3sc4c(c3c2)CNCC4)cc1Cl [Compound B1] | 14.4 | 2.67 | –
21 | Cc1nn(C)c(C)c1NS(=O)(=O)c1ccc(-c2ccc3oc4c(c3c2)CNCC4)cc1Cl [Compound B3] | 21.9 | 3.1 | –

Row | SMILES | IC50 ([1]; MV4-11, 72 h) [nM] | IC50 [2, 3] [nM] | other results
22 | Cc1nn(C)c(C)c1NS(=O)(=O)c1ccc(-c2ccc3sc4c(c3c2)CNCC4)cc1 [Compound B4] | 15.8 | 2.94 | –
23 | Cc1nn(C)c(C)c1NS(=O)(=O)c1ccc(-c2ccc3oc4c(c3c2)CNCC4)cc1 [Compound B6] | 23.3 | 3.76 | –
24 | CCc1nn(C)c(C)c1NS(=O)(=O)c1ccc(-c2ccc3sc4c(c3c2)CNCC4)cc1Cl [Compound B7] | 9.82 | 2.93 | –
25 | CCc1nn(C)c(C)c1NS(=O)(=O)c1ccc(-c2ccc3oc4c(c3c2)CNCC4)cc1Cl [Compound B9] | 13.5 | 2.52 | –
26 | CCc1nn(C)c(C)c1NS(=O)(=O)c1ccc(-c2ccc3sc4c(c3c2)CNCC4)cc1 [Compound B10] | 10.1 | 2.39 | –
27 | CCc1nn(C)c(C)c1NS(=O)(=O)c1ccc(-c2ccc3oc4c(c3c2)CNCC4)cc1 [Compound B12] | 17.8 | 2.98 | –
28 | Cc1c(NS(=O)(=O)c2ccc(-c3ccc4oc5c(c4c3)CNCC5)cc2Cl)c(CC(C)C)nn1C [Compound B14] | 25.9 | 3.06 | –
29 | Cc1c(NS(=O)(=O)c2ccc(-c3ccc4oc5c(c4c3)CNCC5)cc2)c(CC(C)C)nn1C [Compound B16] | 32.4 | 3.84 | –
30 | Cc1c(NS(=O)(=O)c2ccc(-c3ccc4sc5c(c4c3)CNCC5)cc2Cl)c(CC#N)nn1C [Compound B19] | 21.7 | 3.07 | –
31 | Cc1c(NS(=O)(=O)c2ccc(-c3ccc4sc5c(c4c3)CCNC5)cc2Cl)c(CC#N)nn1C [Compound B20] | 34.9 | 3.56 | –
32 | Cc1c(NS(=O)(=O)c2c(Cl)cc(-c3ccc4sc5c(c4c3)CCNC5)cc2Cl)c(CC2CC2)nn1C [Compound B25] | – | – | IC50 ([1]; Homo sapiens, MV4-11, 72 h): 10.4 nM; IC50 ([2]; read-out: NMT1 (IC50), 6 nM NMT1 enzyme, 1.25 µM myristoyl-CoA, 20 µM HSPP60 SRC peptide, 45 minutes at 25 °C): 2.62 nM
33 | Cc1c(NS(=O)(=O)c2ccc(-c3ccc4sc5c(c4c3)CNCC5)cc2Cl)c(CC2CC2)nn1C [Compound B27] | 9.68 | 2.08 | –
34 | Cc1c(NS(=O)(=O)c2ccc(-c3ccc4oc5c(c4c3)CNCC5)cc2Cl)c(CC2CC2)nn1C [Compound B29] | 17.4 | 3.6 | –
35 | Cc1c(NS(=O)(=O)c2ccc(-c3ccc4sc5c(c4c3)CNCC5)cc2)c(CC2CC2)nn1C [Compound B30] | 12.3 | 2.59 | –
36 | Cc1c(NS(=O)(=O)c2c(Cl)cc(-c3ccc4oc5c(c4c3)CNCC5)cc2Cl)c(CC(F)(F)F)nn1C [Compound B34] | 61.8 | 5.03 | –
37 | Cc1c(NS(=O)(=O)c2c(Cl)cc(N3CCc4oc5c(c4C3)CNCC5)cc2Cl)c(CC(F)(F)F)nn1C [Compound B36] | 26.2 | 2.75 | –
38 | Cc1c(NS(=O)(=O)c2ccc(-c3ccc4sc5c(c4c3)CNCC5)cc2Cl)c(CC(F)(F)F)nn1C [Compound B37] | 16.6 | 2.21 | –
39 | Cc1c(NS(=O)(=O)c2ccc(-c3ccc4sc5c(c4c3)CNCC5)cc2)c(CC(F)(F)F)nn1C [Compound B40] | – | – | IC50 ([1]; Homo sapiens, MV4-11, 72 h): 11.3 nM; IC50 [2]: 2.7 nM
40 | Cc1c(NS(=O)(=O)c2ccc(-c3ccc4sc5c(c4c3)CCNC5)cc2Cl)c(CC(F)F)nn1C [Compound B60] | 62.8 | – | –
41 | Cc1c(NS(=O)(=O)c2c(Cl)cc(-c3ccnc(N4CCNCC4)c3)cc2Cl)c(CC(C)C)nn1C [PCLX-001, reference compound] | – | – | IC50 ([1]; Homo sapiens, MV4-11, 72 h): 75.3 nM; IC50 [1]: 74.3 nM
